From publication PMC8986778, “Citrullination of glucokinase is linked to autoimmune diabetes” (Nature Communications, 2022)
Non-standard residues stand in square brackets, D forms with d. Residues, ends and D or L forms follow the SMILES beside them. Cit = NC(=O)NCCC[C@H](N)C(=O)O

target: T1, DR0401 protein (Homo sapiens, UniProt P01903+P01911, A100K/A169T/F76Y/I96L/K127E/L162R/M171V/N62H/P40V/Q125Y/R42H/S133A/S149N/S66Y/V115G/V209L/W38E); test: DR0401 peptide binding competition assay; settings: Supplementary Table 2; competition with biotin-HA306-318 0.02 μM; read-out: IC50 (Binding of Predicted Glucokinase Peptides to DR04:01)
T1 construct: made in house; host or cells: insect cell cultures

Compound | IC50
CSCC[C@H](NC(=O)[C@H](CCCCN)NC(=O)[C@@H](NC(=O)[C@H](CO)NC(=O)[C@H](C)NC(=O)[C@H](CCC(=O)O)NC(=O)[C@H](CCC(=O)O)NC(=O)[C@H](Cc1c[nH]cn1)NC(=O)[C@@H](NC(=O)[C@H](CCC(=O)O)NC(=O)[C@H](CC(C)C)NC(=O)[C@H](CCCNC(N)=O)NC(=O)[C@H](CC(C)C)NC(=O)CN)[C@@H](C)O)C(C)C)C(=O)N[C@@H](CC(C)C)C(=O)O [GK 44-58] (H-GL[Cit]LETHEEASVKML-OH; N-terminus and C-terminus assumed) | > 50 µM
CSCC[C@H](NC(=O)[C@H](CCCCN)NC(=O)[C@@H](NC(=O)[C@@H](N)CO)C(C)C)C(=O)N[C@@H](CC(C)C)C(=O)N1CCC[C@H]1C(=O)N[C@H](C(=O)N[C@@H](Cc1ccc(O)cc1)C(=O)N[C@H](C(=O)N[C@@H](CCCNC(N)=O)C(=O)N[C@@H](CO)C(=O)N[C@H](C(=O)N1CCC[C@H]1C(=O)N[C@@H](CCC(=O)O)C(=O)NCC(=O)O)[C@@H](C)O)C(C)C)[C@@H](C)O [GK 54-68] (H-SVKMLPTYV[Cit]STPEG-OH; N-terminus and C-terminus assumed) | > 50 µM
CC(C)C[C@H](N)C(=O)N1CCC[C@H]1C(=O)N[C@H](C(=O)N[C@@H](Cc1ccc(O)cc1)C(=O)N[C@H](C(=O)N[C@@H](CCCNC(N)=O)C(=O)N[C@@H](CO)C(=O)N[C@H](C(=O)N1CCC[C@H]1C(=O)N[C@@H](CCC(=O)O)C(=O)NCC(=O)N[C@@H](CO)C(=O)N[C@@H](CCC(=O)O)C(=O)N[C@H](C(=O)NCC(=O)O)C(C)C)[C@@H](C)O)C(C)C)[C@@H](C)O [GK 58-72] (H-LPTYV[Cit]STPEGSEVG-OH) | 30.9 µM
CSCC[C@H](NC(=O)[C@@H](NC(=O)[C@H](CCCNC(=N)N)NC(=O)[C@H](Cc1ccccc1)NC(=O)[C@H](CC(N)=O)NC(=O)[C@@H](NC(=O)CN)[C@@H](C)O)C(C)C)C(=O)N[C@@H](CC(C)C)C(=O)N[C@H](C(=O)N[C@@H](CCCCN)C(=O)N[C@H](C(=O)NCC(=O)N[C@@H](CCC(=O)O)C(=O)NCC(=O)N[C@@H](CCC(=O)O)C(=O)O)C(C)C)C(C)C [GK 81-95] (H-GTNFRVMLVKVGEGE-OH) | 15.3 µM
CC[C@H](C)[C@H](NC(=O)[C@H](CS)NC(=O)[C@H](CCC(=O)O)NC(=O)[C@H](CO)NC(=O)[C@@H](NC(=O)[C@H](Cc1ccc(O)cc1)NC(=O)[C@H](CC(=O)O)NC(=O)[C@H](Cc1ccccc1)NC(=O)[C@H](CC(C)C)NC(=O)[C@H](CCSC)NC(=O)[C@@H](N)CCC(=O)O)[C@@H](C)CC)C(=O)N[C@@H](CO)C(=O)N[C@@H](CC(=O)O)C(=O)N[C@@H](Cc1ccccc1)C(=O)N[C@@H](CC(C)C)C(=O)O [GK 120-134] (H-EMLFDYISECISDFL-OH) | 40.1 µM
CSCC[C@H](NC(=O)[C@H](Cc1ccc(O)cc1)NC(=O)[C@H](CS)NC(=O)[C@H](C)NC(=O)[C@@H](N)CC(N)=O)C(=O)N[C@@H](CCC(=O)O)C(=O)N[C@@H](CCC(=O)O)C(=O)N[C@@H](CCSC)C(=O)N[C@@H](CCC(N)=O)C(=O)N[C@@H](CC(N)=O)C(=O)N[C@H](C(=O)N[C@@H](CCC(=O)O)C(=O)N[C@@H](CC(C)C)C(=O)N[C@H](C(=O)N[C@@H](CCC(=O)O)C(=O)O)C(C)C)C(C)C [GK 231-245] (H-NACYMEEMQNVELVE-OH) | 0.03 µM
CSCC[C@H](NC(=O)[C@H](Cc1ccc(O)cc1)NC(=O)[C@H](CCCCN)NC(=O)CNC(=O)CN)C(=O)NCC(=O)N[C@@H](CCC(=O)O)C(=O)N[C@@H](CC(C)C)C(=O)N[C@H](C(=O)N[C@@H](CCCNC(N)=O)C(=O)N[C@@H](CC(C)C)C(=O)N[C@H](C(=O)N[C@@H](CC(C)C)C(=O)N[C@@H](CC(C)C)C(=O)N[C@@H](CCCNC(=N)N)C(=O)O)C(C)C)C(C)C [GK 294-308] (H-GGKYMGELV[Cit]LVLLR-OH) | 4.3 µM
CC(C)C[C@H](NC(=O)[C@H](CCC(N)=O)NC(=O)[C@H](CCC(=O)O)NC(=O)[C@H](CO)NC(=O)[C@H](C)NC(=O)[C@H](CCC(=O)O)NC(=O)CNC(=O)[C@H](Cc1c[nH]cn1)NC(=O)[C@H](Cc1ccccc1)NC(=O)[C@H](CC(C)C)NC(=O)[C@H](CC(C)C)NC(=O)[C@H](CC(N)=O)NC(=O)[C@H](CCC(=O)O)NC(=O)[C@@H](N)CC(=O)O)C(=O)O [GK 311-324] (H-DENLLFHGEASEQL-OH; N-terminus and C-terminus assumed) | > 50 µM
CC(C)C[C@H](NC(=O)[C@H](CCC(N)=O)NC(=O)[C@H](CCC(=O)O)NC(=O)[C@H](CO)NC(=O)[C@H](C)NC(=O)[C@H](CCC(=O)O)NC(=O)CNC(=O)[C@H](Cc1c[nH]cn1)NC(=O)[C@H](Cc1ccccc1)NC(=O)[C@H](CC(C)C)NC(=O)[C@H](CC(C)C)NC(=O)[C@@H](N)CC(N)=O)C(=O)N[C@@H](CCCNC(N)=O)C(=O)N[C@H](C(=O)N[C@@H](CCCNC(=N)N)C(=O)O)[C@@H](C)O [GK 313-327] (H-NLLFHGEASEQL[Cit]TR-OH; N-terminus and C-terminus assumed) | > 50 µM
CC(C)[C@H](NC(=O)[C@H](CCC(N)=O)NC(=O)[C@H](CO)NC(=O)[C@@H](NC(=O)[C@H](Cc1ccccc1)NC(=O)[C@H](CCCNC(N)=O)NC(=O)[C@@H](NC(=O)[C@H](CCC(=O)O)NC(=O)[C@H](Cc1ccccc1)NC(=O)[C@H](C)NC(=O)CNC(=O)[C@@H](N)CCCNC(=N)N)[C@@H](C)O)C(C)C)C(=O)N[C@@H](CCC(=O)O)C(=O)N[C@@H](CO)C(=O)N[C@@H](CC(=O)O)C(=O)O [GK 327-341] (H-RGAFET[Cit]FVSQVESD-OH; N-terminus and C-terminus assumed) | > 50 µM
CC(C)[C@H](NC(=O)[C@H](CCC(N)=O)NC(=O)[C@H](CO)NC(=O)[C@@H](NC(=O)[C@H](Cc1ccccc1)NC(=O)[C@H](CCCNC(N)=O)NC(=O)[C@@H](NC(=O)[C@@H](N)CCC(=O)O)[C@@H](C)O)C(C)C)C(=O)N[C@@H](CCC(=O)O)C(=O)N[C@@H](CO)C(=O)N[C@@H](CC(=O)O)C(=O)N[C@H](C(=O)NCC(=O)N[C@@H](CC(=O)O)C(=O)O)[C@@H](C)O [GK 331-344] (H-ET[Cit]FVSQVESDTGD-OH; N-terminus and C-terminus assumed) | > 50 µM

same assay, conditions: Supplementary Table 3; competition with biotin-HA306-318 0.02 μM; representative values from two replicate experiments; read-out: IC50 (Effect of Citrulline or Arg Substitution)

Compound | IC50
CC(C)C[C@H](NC(=O)[C@H](CC(C)C)NC(=O)[C@H](Cc1ccccc1)NC(=O)[C@H](CCC(=O)O)NC(=O)[C@H](CC(=O)O)NC(=O)[C@@H](N)CC(C)C)C(=O)N[C@@H](CCC(=O)O)C(=O)N[C@@H](Cc1ccc(O)cc1)C(=O)N[C@@H](CC(=O)O)C(=O)N[C@@H](CCCNC(N)=O)C(=O)N[C@@H](CC(C)C)C(=O)N[C@H](C(=O)N[C@@H](CC(=O)O)C(=O)N[C@@H](CCC(=O)O)C(=O)N[C@@H](CO)C(=O)O)C(C)C [GK 266 Cit] (H-LDEFLLEYD[Cit]LVDES-OH) | 9.5 µM
CC(C)C[C@H](NC(=O)[C@H](CCCNC(N)=O)NC(=O)[C@H](CC(=O)O)NC(=O)[C@H](Cc1ccc(O)cc1)NC(=O)[C@H](CCC(=O)O)NC(=O)[C@H](CC(C)C)NC(=O)[C@@H](N)CC(C)C)C(=O)N[C@H](C(=O)N[C@@H](CC(=O)O)C(=O)N[C@@H](CCC(=O)O)C(=O)N[C@@H](CO)C(=O)N[C@@H](CO)C(=O)N[C@@H](C)C(=O)N[C@@H](CC(N)=O)C(=O)N1CCC[C@H]1C(=O)O)C(C)C [GK 270 Cit] (H-LLEYD[Cit]LVDESSANP-OH) | 8.6 µM
CC[C@H](C)[C@H](NC(=O)[C@H](CC(N)=O)NC(=O)[C@H](Cc1ccc(O)cc1)NC(=O)[C@@H](NC(=O)[C@H](CCC(N)=O)NC(=O)[C@@H](N)CCCCN)[C@@H](C)CC)C(=O)N[C@@H](CC(C)C)C(=O)N[C@@H](CO)C(=O)N[C@H](C(=O)N[C@@H](CC(C)C)C(=O)NCC(=O)N[C@@H](CC(C)C)C(=O)N[C@@H](CCCNC(=N)N)C(=O)N1CCC[C@H]1C(=O)N[C@@H](CO)C(=O)O)[C@@H](C)O [GK 346 WT] (H-KQIYNILSTLGLRPS-OH) | 0.47 µM

same assay, conditions: Table 1; competition with biotinylated HA306-318 reference peptide at 0.02 μM in DR0401-coated wells; europium-streptavidin time resolved fluorescence; concentration that displaces half of the reference peptide; read-out: IC50 (binding to DR0401)

Compound | IC50
CSCC[C@H](NC(=O)[C@H](C)NC(=O)[C@@H](NC(=O)[C@@H](NC(=O)[C@H](CC(=O)O)NC(=O)[C@H](CCSC)NC(=O)[C@H](CCC(=O)O)NC(=O)[C@H](Cc1ccccc1)NC(=O)[C@H](CC(=O)O)NC(=O)CNC(=O)[C@@H](N)CCCNC(=N)N)C(C)C)C(C)C)C(=O)N[C@H](C(=O)N[C@@H](CC(N)=O)C(=O)N[C@@H](CC(=O)O)C(=O)N[C@H](C(=O)O)[C@@H](C)O)C(C)C [GK 192] (H-RGDFEMDVVAMVNDT-OH) | 0.35 µM
CC[C@H](C)[C@H](NC(=O)[C@H](CCSC)NC(=O)[C@@H](NC(=O)[C@H](C)NC(=O)[C@@H](NC(=O)[C@@H](NC(=O)[C@H](CC(=O)O)NC(=O)[C@H](CC(N)=O)NC(=O)[C@@H](NC(=O)[C@H](CCSC)NC(=O)[C@H](C)NC(=O)[C@@H](NC(=O)[C@@H](N)C(C)C)C(C)C)C(C)C)[C@@H](C)O)C(C)C)[C@@H](C)O)C(=O)N[C@@H](CO)C(=O)N[C@@H](CS)C(=O)N[C@@H](Cc1ccc(O)cc1)C(=O)O [GK 199] (H-VVAMVNDTVATMISCY-OH) | 2.5 µM
CC(C)C[C@H](NC(=O)[C@H](CC(C)C)NC(=O)[C@H](Cc1ccccc1)NC(=O)[C@H](CCC(=O)O)NC(=O)[C@H](CC(=O)O)NC(=O)[C@@H](N)CC(C)C)C(=O)N[C@@H](CCC(=O)O)C(=O)N[C@@H](Cc1ccc(O)cc1)C(=O)N[C@@H](CC(=O)O)C(=O)N[C@@H](CCCNC(=N)N)C(=O)N[C@@H](CC(C)C)C(=O)N[C@H](C(=O)N[C@@H](CC(=O)O)C(=O)N[C@@H](CCC(=O)O)C(=O)N[C@@H](CO)C(=O)O)C(C)C [GK 266] (H-LDEFLLEYDRLVDES-OH) | 5.6 µM
CC(C)C[C@H](NC(=O)[C@H](CCCNC(=N)N)NC(=O)[C@H](CC(=O)O)NC(=O)[C@H](Cc1ccc(O)cc1)NC(=O)[C@H](CCC(=O)O)NC(=O)[C@H](CC(C)C)NC(=O)[C@@H](N)CC(C)C)C(=O)N[C@H](C(=O)N[C@@H](CC(=O)O)C(=O)N[C@@H](CCC(=O)O)C(=O)N[C@@H](CO)C(=O)N[C@@H](CO)C(=O)N[C@@H](C)C(=O)N[C@@H](CC(N)=O)C(=O)N1CCC[C@H]1C(=O)O)C(C)C [GK 270] (H-LLEYDRLVDESSANP-OH) | 2 µM
